From patent US20240158392A1 (Janssen Biotech, Inc., priority 2021, published 2024)

Experiments:
[1] = target: T1, SIK2 (Homo sapiens, UniProt Q9H0K1); assay: SIK2 Enzymatic Assay Version 1 (ADP Glo); type: biochemical; details: enzyme 0.6 nM, 160 μM ATP and 140 μM HDAC5tide (each 2× final concentration); 30 minutes pre-incubation, 4 hours; ADPGlo luminescence; read-out: SIK2 ADP Glo IC50 (μM) (Test Example 1)
Description: All steps were performed at room temperature. Compounds were pre-plated onto an assay plate using an Echo acoustic dispenser (Labcyte, E550 or E555) at 20 nL per well. Enzyme prepared in Assay Buffer at 0.6 nM (2× final concentration) was added at 2 μL per well using the Multidrop Combi (Thermo Fisher—used for all additions in this assay) to the assay plate, spun for 1 min at 800-850 rpm (Allegra 6KR Beckman Coulter centrifuge), and incubated with compound for 30 minutes.
One column of wells was dedicated to a no-peptide negative control (containing only ATP). ADPGlo Reagent (prepared and aliquoted as per manufacturer instructions) was then added at 2 μL per well, spun and incubated for 40 min. ADPGlo Detection (prepared and aliquoted as per manufacturer instructions) was added at 2 μL per well to the assay plate, which was spun and incubated for at least 30 min. The plate was then read on the Pherastar (BMG Labtech) using a luminescence read. Gain was set by the 0.1 mM concentration of ADP wells in the ADP/ATP standard curve plate generated as per manufacturer instructions.

[2] = target: T1, SIK2; assay: SIK2 Enzymatic Assay High Version 2 (High ATP); type: biochemical
Method in brief: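 At room temperature, enzyme (6 nM, 2× final) was preincubated with compound for 30 min, then 6 mM ATP and 400 μM HDAC5tide (both 2× final) were added for 2 h. ADP formed was measured by ADP-Glo Max (2 h reagent, 1 h detection) using luminescence.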

T1 sequence (Q9H0K1 whole entry, species assumed): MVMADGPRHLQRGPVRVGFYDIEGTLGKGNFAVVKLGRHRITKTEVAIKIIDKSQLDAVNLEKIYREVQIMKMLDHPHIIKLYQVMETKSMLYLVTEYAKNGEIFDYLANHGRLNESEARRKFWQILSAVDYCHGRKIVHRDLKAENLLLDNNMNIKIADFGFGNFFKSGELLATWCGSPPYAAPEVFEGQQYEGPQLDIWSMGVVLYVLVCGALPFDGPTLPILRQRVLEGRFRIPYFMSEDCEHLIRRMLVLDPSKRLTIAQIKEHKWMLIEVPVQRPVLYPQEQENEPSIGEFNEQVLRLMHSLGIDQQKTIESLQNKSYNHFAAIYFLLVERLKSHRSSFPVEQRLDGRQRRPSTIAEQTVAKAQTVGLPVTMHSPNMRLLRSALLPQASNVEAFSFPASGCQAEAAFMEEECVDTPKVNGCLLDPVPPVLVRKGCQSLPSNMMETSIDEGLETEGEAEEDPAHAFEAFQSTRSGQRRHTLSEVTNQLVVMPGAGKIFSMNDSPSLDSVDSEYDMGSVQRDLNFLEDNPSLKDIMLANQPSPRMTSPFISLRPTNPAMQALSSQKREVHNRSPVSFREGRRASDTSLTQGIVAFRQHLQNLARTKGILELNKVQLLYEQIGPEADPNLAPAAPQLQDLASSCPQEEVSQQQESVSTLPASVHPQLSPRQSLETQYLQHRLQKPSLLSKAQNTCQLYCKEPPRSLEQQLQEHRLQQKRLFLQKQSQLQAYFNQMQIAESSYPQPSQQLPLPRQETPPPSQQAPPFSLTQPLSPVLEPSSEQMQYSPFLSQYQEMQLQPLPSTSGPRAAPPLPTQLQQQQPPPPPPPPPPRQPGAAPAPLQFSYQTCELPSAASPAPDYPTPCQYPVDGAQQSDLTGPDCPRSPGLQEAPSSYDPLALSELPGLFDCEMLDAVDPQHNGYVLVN

SMILES | IC50 [1] [µM] | IC50 [2] [nM]
N#Cc1cc(-c2ccn3nc(NC(=O)C4CC4)cc3c2)c(OCC2CNC(=O)C2)cn1 (racemic) [Example 33, rac-N-(5-(2-cyano-5-((5-oxopyrrolidin-3-yl)methoxy)pyridin-4-yl)pyrazolo[1,5-a]pyridin-2-yl)cyclopropanecarboxamide] | 0.00416 | 93.1
N#Cc1cc(-c2ccn3nc(NC(=O)C4CC4)cc3c2)c(OCC2CCC(O)(C(F)(F)F)CC2)cn1 (racemic) [Example 178, rac-N-[5-[2-cyano-5-[[4-hydroxy-4-(trifluoromethyl)cyclohexyl]methoxy]-4-pyridyl]pyrazolo[1,5-a]pyridin-2-yl]cyclopropanecarboxamide] | 0.000605 | 12.9
CN1CC[C@H](Oc2cnc(C#N)cc2-c2ccn3nc(NC(=O)C4CC4)cc3c2)C[C@@H]1C(F)(F)F (relative stereo) [Example 30, N-(5-(2-cyano-5-(((2*R,4*S)-1-methyl-2-(trifluoromethyl)piperidin-4-yl)oxy)pyridin-4-yl)pyrazolo[1,5-a]pyridin-2-yl)cyclopropanecarboxamide] | 0.00044 | 4.5
N#Cc1cc(-c2ccn3nc(NC(=O)C4CC4)cc3c2)c(O[C@@H]2CCN[C@H](C(F)(F)F)C2)cn1 (single isomer, unassigned) [Example 8, N-(5-(2-cyano-5-(((2*S,4*R)-2-(trifluoromethyl)piperidin-4-yl)oxy)pyridin-4-yl)pyrazolo[1,5-a]pyridin-2-yl)cyclopropanecarboxamide] | 0.000373 | 7.51
N#Cc1cc(-c2ccn3nc(NC(=O)C4CC4)cc3c2)c(O[C@@H]2C[C@@H]3C[C@H]2CN3)cn1 (single isomer, unassigned) [Example 17, N-[5-[5-[[(1*S,4*S,5*R)-2-azabicyclo[2.2.1]heptan-5-yl]oxy]-2-cyano-4-pyridyl]pyrazolo[1,5-a]pyridin-2-yl]cyclopropanecarboxamide] | 0.000402 | 4.17
CN1CC[C@@H](Oc2cnc(C#N)cc2-c2ccn3nc(NC(=O)C4CC4)cc3c2)C[C@H]1C(F)(F)F (single isomer, unassigned) [Example 29, N-(5-(2-cyano-5-(((2*S,4*R)-1-methyl-2-(trifluoromethyl)piperidin-4-yl)oxy)pyridin-4-yl)pyrazolo[1,5-a]pyridin-2-yl)cyclopropanecarboxamide] | 0.00575 | 145
C[C@@](O)(COc1cnc(C#N)cc1-c1ccn2nc(NC(=O)C3CC3)cc2c1)C(F)(F)F (single isomer, unassigned) [Example 49, (*R)—N-(5-(2-Cyano-5-(3,3,3-trifluoro-2-hydroxy-2-methylpropoxy)pyridin-4-yl)pyrazolo[1,5-a]pyridin-2-yl)cyclopropanecarboxamide] | 0.000957 | 25.2
C[C@](O)(COc1cnc(C#N)cc1-c1ccn2nc(NC(=O)C3CC3)cc2c1)C(F)(F)F (single isomer, unassigned) [Example 50, (*S)—N-(5-(2-Cyano-5-(3,3,3-trifluoro-2-hydroxy-2-methylpropoxy)pyridin-4-yl)pyrazolo[1,5-a]pyridin-2-yl)cyclopropanecarboxamide] | 0.00111 | 21.9
CC(=O)N1CCC(Oc2cnc(C#N)cc2-c2ccn3nc(NC(=O)C4CC4)cc3c2)C1 (single isomer, unassigned) [Example 56, (*R)—N-(5-(5-((1-Acetylpyrrolidin-3-yl)oxy)-2-cyanopyridin-4-yl)pyrazolo[1,5-a]pyridin-2-yl)cyclopropanecarboxamide] | 0.0036 | 69.2
CC(=O)N1CCC(Oc2cnc(C#N)cc2-c2ccn3nc(NC(=O)C4CC4)cc3c2)C1 (single isomer, unassigned) [Example 57, (*S)—N-(5-(5-((1-Acetylpyrrolidin-3-yl)oxy)-2-cyanopyridin-4-yl)pyrazolo[1,5-a]pyridin-2-yl)cyclopropanecarboxamide] | 0.0103 | 264
CN1CCC(Oc2cnc(C#N)cc2-c2ccn3nc(NC(=O)C4CC4)cc3c2)C1 (single isomer, unassigned) [Example 58, (*R)—N-(5-(2-cyano-5-((1-methylpyrrolidin-3-yl)oxy)pyridin-4-yl)pyrazolo[1,5-a]pyridin-2-yl)cyclopropanecarboxamide] | 0.00431 | 99.9
CN1CCC(Oc2cnc(C#N)cc2-c2ccn3nc(NC(=O)C4CC4)cc3c2)C1 (single isomer, unassigned) [Example 59, (*S)—N-(5-(2-cyano-5-((1-methylpyrrolidin-3-yl)oxy)pyridin-4-yl)pyrazolo[1,5-a]pyridin-2-yl)cyclopropanecarboxamide] | 0.0047 | 111
Cc1cc(-c2ccn3nc(NC(=O)C4CC4)cc3c2)c(O[C@H]2CC[C@@H](O)C2)cn1 (single isomer, unassigned) [Example 179, cis-N-(5-(5-(((1*S,3*R)-3-hydroxycyclopentyl)oxy)-2-methylpyridin-4-yl)pyrazolo[1,5-a]pyridin-2-yl)cyclopropanecarboxamide] | 0.00308 | 52.1
Cc1cc(-c2ccn3nc(NC(=O)C4CC4)cc3c2)c(O[C@@H]2CC[C@H](O)C2)cn1 (single isomer, unassigned) [Example 180, cis-N-(5-(5-(((1*R,3*S)-3-hydroxycyclopentyl)oxy)-2-methylpyridin-4-yl)pyrazolo[1,5-a]pyridin-2-yl)cyclopropanecarboxamide] | 0.00358 | 60.9
Cc1cc(-c2ccn3nc(NC(=O)C4CC4)cc3c2)c(O[C@@H]2CNC[C@H](C(F)(F)F)C2)cn1 (single isomer, unassigned) [Example 445, N-[5-[2-methyl-5-[[(3*S,5*R)-5-(trifluoromethyl)-3-piperidyl]oxy]-4-pyridyl]pyrazolo[1,5-a]pyridin-2-yl]cyclopropanecarboxamide] | 0.00109 | 11.6
C[C@@H](Oc1ccc(C#N)cc1-c1ccn2nc(NC(=O)C3CC3)cc2c1)[C@@H]1CNCCO1 (single isomer, unassigned) [Example 477, (2*R, 1*S)—N-[5-[5-cyano-2-(1-morpholin-2-ylethoxy)phenyl]pyrazolo[1,5-a]pyridin-2-yl]cyclopropanecarboxamide] | 0.00442 | 50.7
Cc1cc(-c2ccn3nc(Nc4cc(C)nc(C)n4)cc3c2)c(OC[C@H]2CC[C@@H](O)CO2)cn1 (single isomer, unassigned) [Example 582, (3*R, 6*R)-6-[[4-[2-[(2,6-dimethylpyrimidin-4-yl)amino]pyrazolo[1,5-a]pyridin-5-yl]-6-methyl-3-pyridyl]oxymethyl]tetrahydropyran-3-ol] | 0.00328 | 62.2
COc1ncccc1-c1ccn2nc(NC(=O)C3CC3)cc2c1 [Example 748, N-[5-(2-methoxy-3-pyridyl)pyrazolo[1,5-a]pyridin-2-yl]cyclopropanecarboxamide] | 0.0965 | 
COc1cccnc1-c1ccn2nc(NC(=O)C3CC3)cc2c1 [Example 750, N-[5-(3-methoxy-2-pyridyl)pyrazolo[1,5-a]pyridin-2-yl]cyclopropanecarboxamide] | 0.45 | 
COc1ccncc1-c1ccn2nc(NC(=O)C3CC3)cc2c1 [Example 751, N-[5-(4-methoxy-3-pyridyl)pyrazolo[1,5-a]pyridin-2-yl]cyclopropanecarboxamide] | 0.198 | 
